Test results taken from US7537803B2, “Polymer coating/encapsulation of nanoparticles using a supercritical antisolvent process” (New Jersey Institute of Technology, priority 2003, dated 2009).

Experiment: Dissolution of hydrocortisone in DCM of the coating suspension
Type: physicochemical
Conditions: suspension in PLGA/dichloromethane for SAS coating
Text: An exemplary processing protocol according to the present disclosure is as follows. The precipitation chamber is first charged with SC CO2. After the predetermined operating conditions (temperature and pressure) are reached, a steady flow of CO2 is established by adjusting the metering valve and the metering pump. The flow rate of CO2 was usually less than 3.0 standard liters per minute (SLPM). PLGA and hydrocortisone (HC) are then weighed and mixed into dichloromethane (DCM) to produce a suspension with the desired polymer concentration and PLGA to HC ratio. The suspension-so-produced is then injected at a flow rate of 0.8 ml/min into the high pressure chamber through the capillary nozzle by using an HPLC pump (Beckman, 110B) for about 10 minutes. After spraying, fresh CO2 is supplied continuously to purge the chamber with about 1 equivalent volume of CO2 in order to remove any remaining dichloromethane. After purging, the precipitation chamber is slowly depressurized and the coated drug particles collected for characterization.
Initially, reference is made to FIG. 18 wherein SEM images of the untreated hydrocortisone particles employed in the experimental studies are shown. Hydrocortisone is seen to be in crystal form with defined facets and sharp edges. […] The coated particles have a different shape (morphology) and no clear sharp edges when compared with the uncoated drug particles. […]

hydrocortisone dissolved in DCM, share of the total: about 17%
Compound: C[C@]12CCC(=O)C=C1CC[C@@H]1[C@@H]2[C@@H](O)C[C@@]2(C)[C@H]1CC[C@]2(O)C(=O)CO [hydrocortisone, Hydrocortisone]
